Laboratory results: patent US20070203149A1, “CCR5 ANTAGONISTS USEFUL FOR TREATING HIV” (Schering Corporation, priority 2006, published 2007)

What was measured:
[1] = tested on: primary R5 HIV 1 clinical isolates; test: Inhibition of viral replication in human PBMCs infected with primary R5 HIV 1 clinical isolates; type: cell-based; conditions: for IC50: Human immunodeficiency virus 1, PBMC, human PBMCs infected with primary R5 HIV 1 clinical isolates, read-out: median IC50, inhibition of viral replication
Protocol: This assay uses primary peripheral blood mononuclear cells or the stable U87-CCR5 cell line to determine the effect of anti-CCR5 compounds to block infection of primary HIV-1 strains. The primary lymphocytes are purified from normal healthy donors and stimulated in vitro with PHA and IL-2 three days prior to infection. Using a 96-well plate format, cells are pretreated with drug for 1 hour at 37° C. and subsequently infected with an M-tropic HIV-1 isolates. Following infection, the cells are washed to remove residual inoculum and cultured in the presence of compound for 4 days. Culture supernatants are harvested and viral replication measured by determination of viral p24 antigen concentration.

[2] = Human rising single dose study: metabolite profiling of plasma and urine by LC-MS/MS after oral compound of formula A; type: in vivo
Protocol: (M5a/M5b/M5c/M5d are potential rotamers of the compound of Formula I)
In a human rising single dose study, plasma levels of the compound of formula I relative to the compound of formula A were assessed in blood samples drawn at 2, 8, and 24 hr following oral administration of the compound of formula A. An in-house metabolite profiling method using LC-MS/MS detection was employed for this assessment. Based on this qualitative assessment of the compound of formula I in human plasma, the concentrations of the compound of formula I are projected to be up to 3-fold higher than the compound of formula A in human plasma (see FIG. 5). This is considered to be a surprising and unexpected result.

| IC50 [1] | metabolite status in human urine ([2]; 0-24 hr urine, single oral 50 mg compound of Formula A, healthy male volunteers) | metabolite status in clinical samples ([2]; first-in-man studies after administration of compound of formula A) | plasma concentration relative to the compound of formula A ([2]; human plasma, samples at 2, 8 and 24 hr after oral compound of formula A, projected from qualitative assessment) | metabolite status in human plasma ([2]; plasma 2 hr, single oral 50 mg compound of Formula A, healthy male volunteers) | SMILES | in vitro potency relative to the compound of formula A ([1]; human PBMCs, primary R5 HIV 1 isolates, ratio of median IC50 values) | susceptibility to further metabolism ([2]; stated as consequence of being a major metabolite) |
| --- | --- | --- | --- | --- | --- | --- | --- |
| 7.5 nM |  |  |  |  | COC[C@@H](c1ccc(C(F)(F)F)cc1)N1CCN(C2(C)CCN(C(=O)c3c(C)ncnc3C)CC2)C[C@@H]1C [SCH-417690, reference compound] |  |  |
| 1 nM |  |  |  |  | Cc1ncnc(C)c1C(=O)N1CCC(C)(N2CCN([C@@H](c3cccc(F)c3)C3CCN(S(=O)(=O)C4CC4)CC3)[C@@H](C)C2)CC1 [compound of formula A, reference compound] |  |  |
| 8 nM | significant metabolite | major metabolite | up to 3 fold | significant metabolite | Cc1nc[n+]([O-])c(C)c1C(=O)N1CCC(C)(N2CCN([C@@H](c3cccc(F)c3)C3CCN(S(=O)(=O)C4CC4)CC3)[C@@H](C)C2)CC1 [compound of formula I] | approximately ⅛ | less susceptible to further rapid metabolism |
